Measured values as given in PMC12052975, “A key residue of the extracellular gate provides quality control contributing to ABCG substrate specificity” (Nature Communications, 2025).
Changes are numbered by the printed parent chain.

Columns and labels:
Assay type in all cases: cell-based
ABCG36/PDR8/PEN3 [1] = target: T1, ABCG36/PDR8/PEN3 (Arabidopsis thaliana, UniProt Q9XIE2); assay: radiolabel export from transfected N. benthamiana protoplasts; also stimulates ATPase in microsomes; specific binding to Arabidopsis microsomes; details: labelled compound; export 25 °C, 15 min; ATPase with 50 μM compound at pH 9.0; binding at 10 nM
T1 construct: full length, 35S:ABCG36-GFP (GFP tag kept), Agrobacterium-transfected Nicotiana benthamiana mesophyll protoplasts or microsomes; full-size PDR-type ABC transporter
T1 sequence (Q9XIE2 1-1469): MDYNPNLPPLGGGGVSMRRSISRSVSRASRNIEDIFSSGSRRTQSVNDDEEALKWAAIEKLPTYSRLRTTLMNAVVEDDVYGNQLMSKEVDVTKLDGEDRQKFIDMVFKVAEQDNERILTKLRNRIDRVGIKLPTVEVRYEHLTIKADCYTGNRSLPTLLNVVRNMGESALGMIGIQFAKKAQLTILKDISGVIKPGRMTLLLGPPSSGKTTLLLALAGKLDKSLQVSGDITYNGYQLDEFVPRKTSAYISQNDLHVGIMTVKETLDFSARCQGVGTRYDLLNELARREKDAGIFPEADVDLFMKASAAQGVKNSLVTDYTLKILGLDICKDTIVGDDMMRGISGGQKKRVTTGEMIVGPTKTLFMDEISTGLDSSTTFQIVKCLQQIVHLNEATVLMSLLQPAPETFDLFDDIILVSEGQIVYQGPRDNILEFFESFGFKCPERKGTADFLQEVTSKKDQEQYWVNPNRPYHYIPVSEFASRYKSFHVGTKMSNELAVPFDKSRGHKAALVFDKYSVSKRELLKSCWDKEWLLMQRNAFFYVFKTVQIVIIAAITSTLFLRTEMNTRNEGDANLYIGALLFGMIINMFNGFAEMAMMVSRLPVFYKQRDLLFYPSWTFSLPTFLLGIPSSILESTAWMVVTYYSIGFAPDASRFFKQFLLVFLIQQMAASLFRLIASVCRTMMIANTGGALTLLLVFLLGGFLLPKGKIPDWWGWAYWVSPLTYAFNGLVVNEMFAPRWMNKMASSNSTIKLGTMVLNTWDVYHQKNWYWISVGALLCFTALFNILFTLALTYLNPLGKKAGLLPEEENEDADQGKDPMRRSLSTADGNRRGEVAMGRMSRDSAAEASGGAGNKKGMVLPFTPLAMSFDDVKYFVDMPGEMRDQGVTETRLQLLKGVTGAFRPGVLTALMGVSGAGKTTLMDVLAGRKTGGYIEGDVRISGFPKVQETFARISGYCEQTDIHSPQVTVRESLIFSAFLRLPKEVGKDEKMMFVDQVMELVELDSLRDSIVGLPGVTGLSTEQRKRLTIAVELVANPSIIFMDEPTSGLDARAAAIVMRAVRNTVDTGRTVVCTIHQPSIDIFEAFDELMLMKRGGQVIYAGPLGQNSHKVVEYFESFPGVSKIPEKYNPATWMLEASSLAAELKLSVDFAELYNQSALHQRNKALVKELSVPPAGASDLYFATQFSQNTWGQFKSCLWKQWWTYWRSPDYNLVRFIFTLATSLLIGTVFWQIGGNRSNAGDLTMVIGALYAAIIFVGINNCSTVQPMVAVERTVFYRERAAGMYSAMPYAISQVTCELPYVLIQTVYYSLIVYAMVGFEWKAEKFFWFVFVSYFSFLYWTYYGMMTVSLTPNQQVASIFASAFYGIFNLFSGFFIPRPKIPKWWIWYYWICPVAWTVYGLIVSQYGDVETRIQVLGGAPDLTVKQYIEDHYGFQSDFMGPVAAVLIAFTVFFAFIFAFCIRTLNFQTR

ABCG36/PDR8/PEN3 [2] = target: T2, ABCG36/PDR8/PEN3 (Arabidopsis thaliana, UniProt Q9XIE2, L704S); assay: radiolabel export from transfected N. benthamiana protoplasts; details: labelled compound; export 25 °C, 15 min
T2 construct: full length, 35S:ABCG36-GFP (GFP tag kept), Agrobacterium-transfected Nicotiana benthamiana mesophyll protoplasts or microsomes; full-size PDR-type ABC transporter
T2 sequence (Q9XIE2 1-1469 L704S): T1 sequence (Q9XIE2 1-1469) with L704S

ABCG36/PDR8/PEN3 [3] = target: T3, ABCG36/PDR8/PEN3 (Arabidopsis thaliana, UniProt Q9XIE2, L704F); assay: radiolabel export from transfected N. benthamiana protoplasts; also stimulates ATPase in microsomes; details: labelled compound; export 25 °C, 15 min; ATPase with 50 μM compound at pH 9.0
T3 construct: full length, 35S:ABCG36-GFP (GFP tag kept), Agrobacterium-transfected Nicotiana benthamiana mesophyll protoplasts or microsomes; full-size PDR-type ABC transporter
T3 sequence (Q9XIE2 1-1469 L704F): T1 sequence (Q9XIE2 1-1469) with L704F

| Compound | radiolabel export from transfected N. benthamiana protoplasts; also stimulates A (ABCG36/PDR8/PEN3 [1]) | radiolabel export from transfected N. benthamiana protoplasts (ABCG36/PDR8/PEN3 [2]) | radiolabel export from transfected N. benthamiana protoplasts; also stimulates A (ABCG36/PDR8/PEN3 [3]) |
| --- | --- | --- | --- |
| c1ccc2c(-c3nccs3)c[nH]c2c1 [CLX, 3-thiazol-2-yl-indole] | stimulated by its substrates (IBA and CLX) but not by non-transported indolic compounds | – | – |
| O=C(O)Cc1c[nH]c2ccccc12 [IAA] | – | gain-of-IAA transport for polar but uncharged serine | – |
| O=C(O)CCCc1c[nH]c2ccccc12 [IBA, indole-3-butyric acid] | stimulated by its substrates (IBA and CLX) but not by non-transported indolic compounds | – | the L704F (abcg36-5) variant had no effect on ABCG36-mediated IBA export |
